The record followed here is ChEMBL document CHEMBL1671731, “Fluoroquinolone efflux by the plasmid-mediated multidrug efflux pump QacB variant QacBIII in Staphylococcus aureus” (2010).

Values after ≈ are worked out from the molar mass of the structure shown. Active and inactive are the calls of the source. No cut-off for these calls is given here. A value given as a limit tells only on which side of the number the result lay.

The first assay deals with Staphylococcus aureus. The assay can be described thus: Antimicrobial activity against Staphylococcus aureus RDN1 harboring cloned pTZN10 containing cat and bla genes by agar dilution method. The class given is functional.
By MIC is commonly meant the least concentration at which growth counts as inhibited. In turn, `CCn1cc(C(=O)O)c(=O)c2cc(F)c(N3CCNCC3)cc21` [NORFLOXACIN] returned an MIC of 0.13 µg/mL (≈ 0.407 µM).

As to `C[n+]1c2cc(N)ccc2cc2ccc(N)cc21.[Cl-]` [EUFLAVINE], it took 1 µg/mL to inhibit growth (MIC).

The molecule `N=C(N)c1ccc(OCCCCCOc2ccc(C(=N)N)cc2)cc1.O=S(=O)(O)CCO` gave an MIC of 1 µg/mL.

For the molecule `C[C@H]1COc2c(N3CCN(C)CC3)c(F)cc3c(=O)c(C(=O)O)cn1c23.C[C@H]1COc2c(N3CCN(C)CC3)c(F)cc3c(=O)c(C(=O)O)cn1c23.O` [LEVOFLOXACIN], the lowest concentration to inhibit growth (MIC) was 0.25 µg/mL.

`CN(C)c1ccc(C(=C2C=CC(=[N+](C)C)C=C2)c2ccc(N(C)C)cc2)cc1.[Cl-]` [GENTIAN VIOLET] registered an MIC of 0.13 µg/mL. Compared with the last molecule, the MIC is about 1.9-fold lower.

Another assay relates to Staphylococcus aureus. The assay is described as follows: Antimicrobial activity against Staphylococcus aureus RDN1 harboring cloned pTZ2396-encoded QacA gene by agar dilution method. Type of assay: functional.
Regarding `CCn1cc(C(=O)O)c(=O)c2cc(F)c(N3CCNCC3)cc21` [NORFLOXACIN], the MIC was found to be 0.25 µg/mL (≈ 0.783 µM).

Take `C[n+]1c2cc(N)ccc2cc2ccc(N)cc21.[Cl-]` [EUFLAVINE]: the minimal inhibitory concentration (MIC) turned out to be 1020 µg/mL.

In turn, `N=C(N)c1ccc(OCCCCCOc2ccc(C(=N)N)cc2)cc1.O=S(=O)(O)CCO` had a minimum inhibitory concentration (MIC) of 512 µg/mL.

The molecule `C[C@H]1COc2c(N3CCN(C)CC3)c(F)cc3c(=O)c(C(=O)O)cn1c23.C[C@H]1COc2c(N3CCN(C)CC3)c(F)cc3c(=O)c(C(=O)O)cn1c23.O` [LEVOFLOXACIN] returned a minimum inhibitory concentration (MIC) of 0.25 µg/mL.

In turn, `CN(C)c1ccc(C(=C2C=CC(=[N+](C)C)C=C2)c2ccc(N(C)C)cc2)cc1.[Cl-]` [GENTIAN VIOLET] came in with an MIC of at least 1 µg/mL.

The next assay relates to Staphylococcus aureus. The assay can be described thus: Antimicrobial activity against Staphylococcus aureus RDN1 harboring cloned pTZ2182-encoded QacBII gene by agar dilution method. The class given is functional. (In general: In agar dilution, organisms are placed on agar that contains the substance at set levels.)
On to `CCn1cc(C(=O)O)c(=O)c2cc(F)c(N3CCNCC3)cc21` [NORFLOXACIN], for which inhibition of growth (MIC) required 0.13 µg/mL (≈ 0.407 µM).

As to `C[n+]1c2cc(N)ccc2cc2ccc(N)cc21.[Cl-]` [EUFLAVINE], the minimum inhibitory concentration (MIC) came to 1020 µg/mL.

`N=C(N)c1ccc(OCCCCCOc2ccc(C(=N)N)cc2)cc1.O=S(=O)(O)CCO` registered a minimum inhibitory concentration (MIC) of 512 µg/mL.

Consider `C[C@H]1COc2c(N3CCN(C)CC3)c(F)cc3c(=O)c(C(=O)O)cn1c23.C[C@H]1COc2c(N3CCN(C)CC3)c(F)cc3c(=O)c(C(=O)O)cn1c23.O` [LEVOFLOXACIN], for which the MIC was 0.25 µg/mL.

In turn, `CN(C)c1ccc(C(=C2C=CC(=[N+](C)C)C=C2)c2ccc(N(C)C)cc2)cc1.[Cl-]` [GENTIAN VIOLET] returned a minimum inhibitory concentration (MIC) of at least 1 µg/mL.

A further assay has as its system Staphylococcus aureus. The assay can be described thus: Antimicrobial activity against Staphylococcus aureus RDN1 harboring cloned pTZ2162-encoded QacBIII gene by agar dilution method. Type of assay: functional.
Molecule `CCn1cc(C(=O)O)c(=O)c2cc(F)c(N3CCNCC3)cc21` [NORFLOXACIN] yielded an MIC of 0.5 µg/mL (≈ 1.57 µM).

In turn, `C[n+]1c2cc(N)ccc2cc2ccc(N)cc21.[Cl-]` [EUFLAVINE] registered an MIC of 256 µg/mL.

`N=C(N)c1ccc(OCCCCCOc2ccc(C(=N)N)cc2)cc1.O=S(=O)(O)CCO` came in with a minimal inhibitory concentration (MIC) of 512 µg/mL.

In the case of `C[C@H]1COc2c(N3CCN(C)CC3)c(F)cc3c(=O)c(C(=O)O)cn1c23.C[C@H]1COc2c(N3CCN(C)CC3)c(F)cc3c(=O)c(C(=O)O)cn1c23.O` [LEVOFLOXACIN], the MIC was determined as 0.25 µg/mL.

In turn, `CN(C)c1ccc(C(=C2C=CC(=[N+](C)C)C=C2)c2ccc(N(C)C)cc2)cc1.[Cl-]` [GENTIAN VIOLET] displayed a minimal inhibitory concentration (MIC) of 0.5 µg/mL.

Another assay has as its system Staphylococcus aureus. The assay can be described thus: Antimicrobial activity against Staphylococcus aureus RDN1 harboring cloned pTZ2162-encoded QacBIII E320A mutant gene by agar dilution method. The class given is functional.
`CCn1cc(C(=O)O)c(=O)c2cc(F)c(N3CCNCC3)cc21` [NORFLOXACIN] came in with an MIC of 0.13 µg/mL (≈ 0.407 µM).

The molecule `C[n+]1c2cc(N)ccc2cc2ccc(N)cc21.[Cl-]` [EUFLAVINE] displayed a minimal inhibitory concentration (MIC) of 1020 µg/mL.

Molecule `N=C(N)c1ccc(OCCCCCOc2ccc(C(=N)N)cc2)cc1.O=S(=O)(O)CCO` displayed an MIC of 512 µg/mL.

The molecule `C[C@H]1COc2c(N3CCN(C)CC3)c(F)cc3c(=O)c(C(=O)O)cn1c23.C[C@H]1COc2c(N3CCN(C)CC3)c(F)cc3c(=O)c(C(=O)O)cn1c23.O` [LEVOFLOXACIN] returned an MIC of 0.25 µg/mL. Compared with the last molecule, the MIC is about 2000-fold lower.

As for `CN(C)c1ccc(C(=C2C=CC(=[N+](C)C)C=C2)c2ccc(N(C)C)cc2)cc1.[Cl-]` [GENTIAN VIOLET], the minimum inhibitory concentration (MIC) was at least 1 µg/mL.

Another assay has as its system Staphylococcus aureus. The assay is described as follows: Antimicrobial activity against Staphylococcus aureus RDN1 harboring cloned pTZ2238-encoded QacBIV gene by agar dilution method. Type of assay: functional.
As to `CCn1cc(C(=O)O)c(=O)c2cc(F)c(N3CCNCC3)cc21` [NORFLOXACIN], the minimal inhibitory concentration (MIC) was determined as 0.13 µg/mL (≈ 0.407 µM).

For `C[n+]1c2cc(N)ccc2cc2ccc(N)cc21.[Cl-]` [EUFLAVINE], 1020 µg/mL was the least that counted as inhibitory (MIC).

In turn, `N=C(N)c1ccc(OCCCCCOc2ccc(C(=N)N)cc2)cc1.O=S(=O)(O)CCO` came in with a minimal inhibitory concentration (MIC) of 1020 µg/mL.

`C[C@H]1COc2c(N3CCN(C)CC3)c(F)cc3c(=O)c(C(=O)O)cn1c23.C[C@H]1COc2c(N3CCN(C)CC3)c(F)cc3c(=O)c(C(=O)O)cn1c23.O` [LEVOFLOXACIN] had a minimal inhibitory concentration (MIC) of 0.25 µg/mL.

As to `CN(C)c1ccc(C(=C2C=CC(=[N+](C)C)C=C2)c2ccc(N(C)C)cc2)cc1.[Cl-]` [GENTIAN VIOLET], the lowest concentration to inhibit growth (MIC) was 0.5 µg/mL.

The test system of another assay is Staphylococcus aureus. The assay is described as follows: Antimicrobial activity against Staphylococcus aureus RDN1 harboring cloned pTZ2238-encoded QacBIV A19T mutant gene by agar dilution method. The class given is functional.
As for `C[n+]1c2cc(N)ccc2cc2ccc(N)cc21.[Cl-]` [EUFLAVINE], the MIC came out at 1020 µg/mL.

`N=C(N)c1ccc(OCCCCCOc2ccc(C(=N)N)cc2)cc1.O=S(=O)(O)CCO` had an MIC of 1020 µg/mL.

In the case of `CN(C)c1ccc(C(=C2C=CC(=[N+](C)C)C=C2)c2ccc(N(C)C)cc2)cc1.[Cl-]` [GENTIAN VIOLET], inhibition of growth (MIC) required 0.5 µg/mL.

For the next assay, the system named is Staphylococcus aureus. The assay is described as follows: Antimicrobial activity against Staphylococcus aureus RDN1 harboring cloned pTZ2238-encoded QacBIV S151I mutant gene by agar dilution method. The class given is functional.
In turn, `C[n+]1c2cc(N)ccc2cc2ccc(N)cc21.[Cl-]` [EUFLAVINE] returned an MIC of 1020 µg/mL.

`N=C(N)c1ccc(OCCCCCOc2ccc(C(=N)N)cc2)cc1.O=S(=O)(O)CCO` returned an MIC of 1020 µg/mL.

`CN(C)c1ccc(C(=C2C=CC(=[N+](C)C)C=C2)c2ccc(N(C)C)cc2)cc1.[Cl-]` [GENTIAN VIOLET]: the minimal inhibitory concentration (MIC) was 0.5 µg/mL.

The subject of a further assay is Staphylococcus aureus. The assay can be described thus: Antimicrobial activity against Staphylococcus aureus RDN1 harboring cloned pTZ2238-encoded QacBIV A184V mutant gene by agar dilution method. Type of assay: functional.
In turn, `C[n+]1c2cc(N)ccc2cc2ccc(N)cc21.[Cl-]` [EUFLAVINE] returned an MIC of 1020 µg/mL.

The molecule `N=C(N)c1ccc(OCCCCCOc2ccc(C(=N)N)cc2)cc1.O=S(=O)(O)CCO` had an MIC of 1020 µg/mL.

In turn, `CN(C)c1ccc(C(=C2C=CC(=[N+](C)C)C=C2)c2ccc(N(C)C)cc2)cc1.[Cl-]` [GENTIAN VIOLET] had an MIC of 0.5 µg/mL. Compared with the last molecule, the MIC is about 2000-fold lower.

In another assay the test system is Staphylococcus aureus. The assay is described as follows: Antimicrobial activity against Staphylococcus aureus RDN1 harboring cloned pTZ2238-encoded QacBIV E377G mutant gene by agar dilution method. Type of assay: functional.
The molecule `C[n+]1c2cc(N)ccc2cc2ccc(N)cc21.[Cl-]` [EUFLAVINE] yielded an MIC of 1020 µg/mL.

In turn, `N=C(N)c1ccc(OCCCCCOc2ccc(C(=N)N)cc2)cc1.O=S(=O)(O)CCO` returned an MIC of 512 µg/mL.

Molecule `CN(C)c1ccc(C(=C2C=CC(=[N+](C)C)C=C2)c2ccc(N(C)C)cc2)cc1.[Cl-]` [GENTIAN VIOLET] showed a minimal inhibitory concentration (MIC) of at least 1 µg/mL.

System in another assay: not listed separately
The assay is described as follows: Activity of antiseptic efflux protein QacBIII expressed in Staphylococcus aureus RDN1 assessed as decrease in compound accumulation.
Turning to `CCn1cc(C(=O)O)c(=O)c2cc(F)c(N3CCNCC3)cc21` [NORFLOXACIN], the result was Active.

System in the next assay: not listed separately
The assay is described as follows: Activity of antiseptic efflux protein QacBIII expressed in Staphylococcus aureus RDN1 assessed as decrease in compound accumulation in presence of CCCP.
With `CCn1cc(C(=O)O)c(=O)c2cc(F)c(N3CCNCC3)cc21` [NORFLOXACIN], the outcome was inactive.
